ChEMBL document CHEMBL1201862, “PubChem BioAssay data set” (2004)
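Five compound concentrations were applied to cells in 96-well plates for 48 hours; endpoints were derived by simple linear interpolation of the resulting dose-response curve. At the GI50, growth is halved.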 Activity calls are given as the source filed them. Rule as the data show it: active = GI50 up to about 1.1 µM and inactive = higher.

Experiments:
Experiment in all cases: NCI tumour cell line growth inhibition, 48 h
HOP-92 = test system: HOP-92
DU-145 = test system: DU-145
SR = test system: SR
NCI-H23 = test system: NCI-H23
HL-60 = test system: HL-60
CCRF-CEM = test system: CCRF-CEM
A498 = test system: A498
HOP-62 = test system: HOP-62
OVCAR-4 = test system: OVCAR-4
MDA-MB-231 = test system: MDA-MB-231
NCI-H226 = test system: NCI-H226
M14 = test system: M14
PC-3 = test system: PC-3
SK-OV-3 = test system: SK-OV-3
TK-10 = test system: TK-10
UACC-62 = test system: UACC-62
SF-539 = test system: SF-539
SF-295 = test system: SF-295
BT-549 = test system: BT-549
COLO 205 = test system: COLO 205
OVCAR-8 = test system: OVCAR-8
CAKI-1 = test system: CAKI-1
SNB-75 = test system: SNB-75
U-251 = test system: U-251
SW-620 = test system: SW-620
MDA-N = test system: MDA-N
SK-MEL-28 = test system: SK-MEL-28
MDA-MB-435 = test system: MDA-MB-435
LOX IMVI = test system: LOX IMVI
IGROV-1 = test system: IGROV-1
MCF7 = test system: MCF7
UO-31 = test system: UO-31
SN12C = test system: SN12C
A549 = test system: A549
NCI-H460 = test system: NCI-H460
SK-MEL-2 = test system: SK-MEL-2
HCT-116 = test system: HCT-116
EKVX = test system: EKVX
OVCAR-5 = test system: OVCAR-5
Malme-3M = test system: Malme-3M
SK-MEL-5 = test system: SK-MEL-5
HCT-15 = test system: HCT-15
UACC-257 = test system: UACC-257
SF-268 = test system: SF-268
RXF 393 = test system: RXF 393
NCI/ADR-RES = test system: NCI/ADR-RES
OVCAR-3 = test system: OVCAR-3
HCC 2998 = test system: HCC 2998
T47D = test system: T47D
HT-29 = test system: HT-29
MOLT-4 = test system: MOLT-4
Hs-578T = test system: Hs-578T
786-0 = test system: 786-0
K562 = test system: K562
KM12 = test system: KM12
RPMI-8226 = test system: RPMI-8226
SNB-19 = test system: SNB-19
NCI-H522 = test system: NCI-H522
ACHN = test system: ACHN

For `CO/N=C1\CC(NC(=O)CNC(=O)OC(C)(C)C)c2ccsc21` (stereo not given), the GI50 (HOP-92) was > 100 µM (inactive), the GI50 (DU-145) was > 100 µM (inactive) and the GI50 (SR) was > 100 µM (inactive). For the same compound, the GI50 (NCI-H23) was > 100 µM (inactive), the GI50 (HL-60) was > 100 µM (inactive) and the GI50 (CCRF-CEM) was > 100 µM (inactive). For the same compound, the GI50 (A498) was > 100 µM (inactive), the GI50 (HOP-62) was > 100 µM (inactive) and the GI50 (OVCAR-4) was > 100 µM (inactive). The GI50 (MDA-MB-231) was > 100 µM (inactive), the GI50 (NCI-H226) was > 100 µM (inactive) and the GI50 (M14) was > 100 µM (inactive). The GI50 (PC-3) was > 100 µM (inactive), the GI50 (SK-OV-3) was > 100 µM (inactive) and the GI50 (TK-10) was > 100 µM (inactive). For the same compound, the GI50 (UACC-62) was > 100 µM (inactive), the GI50 (SF-539) was > 100 µM (inactive) and the GI50 (SF-295) was > 100 µM (inactive). For the same compound, the GI50 (BT-549) was > 100 µM (inactive), the GI50 (COLO 205) was > 100 µM (inactive) and the GI50 (OVCAR-8) was > 100 µM (inactive). The GI50 (CAKI-1) was > 100 µM (inactive), the GI50 (SNB-75) was 53.1 µM (inactive) and the GI50 (U-251) was > 100 µM (inactive). For the same compound, the GI50 (SW-620) was > 100 µM (inactive), the GI50 (MDA-N) was 49.2 µM (inactive) and the GI50 (SK-MEL-28) was > 100 µM (inactive). For the same compound, the GI50 (MDA-MB-435) was 90.6 µM (inactive), the GI50 (LOX IMVI) was > 100 µM (inactive) and the GI50 (IGROV-1) was > 100 µM (inactive). The GI50 (MCF7) was > 100 µM (inactive), the GI50 (UO-31) was > 100 µM (inactive) and the GI50 (SN12C) was > 100 µM (inactive). For the same compound, the GI50 (A549) was > 100 µM (inactive), the GI50 (NCI-H460) was > 100 µM (inactive) and the GI50 (SK-MEL-2) was > 100 µM (inactive). For the same compound, the GI50 (HCT-116) was > 100 µM (inactive), the GI50 (EKVX) was > 100 µM (inactive) and the GI50 (OVCAR-5) was > 100 µM (inactive). The GI50 (Malme-3M) was > 100 µM (inactive), the GI50 (SK-MEL-5) was 81.5 µM (inactive) and the GI50 (HCT-15) was > 100 µM. For the same compound, the GI50 (UACC-257) was > 100 µM (inactive), the GI50 (SF-268) was > 100 µM (inactive) and the GI50 (RXF 393) was > 100 µM (inactive). The GI50 (NCI/ADR-RES) was > 100 µM (inactive), the GI50 (OVCAR-3) was > 100 µM (inactive) and the GI50 (HCC 2998) was > 100 µM (inactive). For the same compound, the GI50 (T47D) was > 100 µM (inactive), the GI50 (HT-29) was > 100 µM (inactive) and the GI50 (MOLT-4) was > 100 µM (inactive). The GI50 (Hs-578T) was > 100 µM (inactive).
`CCCCNC(=O)c1cc2c(cc1Cl)Sc1nccn1S2(=O)=O` was tested, and the GI50 (HOP-92) was 25.4 µM (inactive), the GI50 (DU-145) was > 100 µM (inactive) and the GI50 (SR) was 57.3 µM (inactive). The GI50 (NCI-H23) was > 100 µM (inactive), the GI50 (HL-60) was 41.3 µM (inactive) and the GI50 (786-0) was 55.6 µM (inactive). For the same compound, the GI50 (CCRF-CEM) was 77.6 µM (inactive), the GI50 (A498) was > 100 µM (inactive) and the GI50 (K562) was 78.5 µM (inactive). The GI50 (HOP-62) was 24.3 µM (inactive), the GI50 (OVCAR-4) was 43.7 µM (inactive) and the GI50 (MDA-MB-231) was > 100 µM (inactive). The GI50 (KM12) was > 100 µM (inactive), the GI50 (M14) was > 100 µM (inactive) and the GI50 (PC-3) was 55.2 µM (inactive). The GI50 (SK-OV-3) was > 100 µM (inactive), the GI50 (TK-10) was > 100 µM (inactive) and the GI50 (UACC-62) was 86.5 µM (inactive). For the same compound, the GI50 (SF-539) was > 100 µM (inactive), the GI50 (SF-295) was > 100 µM (inactive) and the GI50 (BT-549) was 78 µM (inactive). The GI50 (COLO 205) was 60.7 µM (inactive), the GI50 (OVCAR-8) was > 100 µM (inactive) and the GI50 (CAKI-1) was 18.7 µM (inactive). For the same compound, the GI50 (SNB-75) was 17.5 µM (inactive), the GI50 (U-251) was 54.8 µM (inactive) and the GI50 (SW-620) was > 100 µM (inactive). The GI50 (MDA-N) was 61.4 µM (inactive), the GI50 (SK-MEL-28) was > 100 µM (inactive) and the GI50 (MDA-MB-435) was 87.1 µM (inactive). The GI50 (RPMI-8226) was > 100 µM (inactive), the GI50 (SNB-19) was > 100 µM (inactive) and the GI50 (LOX IMVI) was 30.3 µM (inactive). For the same compound, the GI50 (IGROV-1) was > 100 µM (inactive), the GI50 (NCI-H522) was 51.8 µM (inactive) and the GI50 (MCF7) was 66.4 µM (inactive). For the same compound, the GI50 (UO-31) was > 100 µM (inactive), the GI50 (ACHN) was 82 µM (inactive) and the GI50 (SN12C) was > 100 µM (inactive). For the same compound, the GI50 (A549) was > 100 µM (inactive), the GI50 (NCI-H460) was 44.3 µM (inactive) and the GI50 (SK-MEL-2) was 70 µM (inactive). The GI50 (HCT-116) was 31 µM (inactive), the GI50 (EKVX) was 70.8 µM (inactive) and the GI50 (OVCAR-5) was > 100 µM (inactive). For the same compound, the GI50 (Malme-3M) was > 100 µM (inactive), the GI50 (SK-MEL-5) was 0.0116 µM (active) and the GI50 (HCT-15) was 92.9 µM. For the same compound, the GI50 (UACC-257) was > 100 µM (inactive), the GI50 (SF-268) was > 100 µM (inactive) and the GI50 (RXF 393) was 95.9 µM (inactive). The GI50 (NCI/ADR-RES) was 79.6 µM (inactive), the GI50 (OVCAR-3) was 34 µM (inactive) and the GI50 (HCC 2998) was > 100 µM (inactive). For the same compound, the GI50 (T47D) was 64 µM (inactive), the GI50 (HT-29) was > 100 µM (inactive) and the GI50 (MOLT-4) was 79.6 µM (inactive). For the same compound, the GI50 (Hs-578T) was 57.3 µM (inactive).
With `CC(=O)N1N=C(c2c(O)ccc3ccccc23)CC1c1ccc(Cl)cc1` (stereo not given) the GI50 (HOP-92) was 10.9 µM (inactive), the GI50 (DU-145) was 43.8 µM (inactive) and the GI50 (SR) was 6.35 µM (inactive). The GI50 (NCI-H23) was 15.1 µM (inactive), the GI50 (786-0) was 27.1 µM (inactive) and the GI50 (CCRF-CEM) was 3.8 µM (inactive). For the same compound, the GI50 (A498) was 26.1 µM (inactive), the GI50 (K562) was 13.1 µM (inactive) and the GI50 (HOP-62) was 16 µM (inactive). The GI50 (OVCAR-4) was 19.6 µM (inactive), the GI50 (MDA-MB-231) was 19.1 µM (inactive) and the GI50 (KM12) was 13.7 µM (inactive). For the same compound, the GI50 (NCI-H226) was 40 µM (inactive), the GI50 (M14) was 14.2 µM (inactive) and the GI50 (PC-3) was 17 µM (inactive). For the same compound, the GI50 (SK-OV-3) was 28.4 µM (inactive), the GI50 (TK-10) was 30.1 µM (inactive) and the GI50 (UACC-62) was 14.1 µM (inactive). The GI50 (SF-539) was 18.4 µM (inactive), the GI50 (SF-295) was 19.9 µM (inactive) and the GI50 (BT-549) was 21 µM (inactive). The GI50 (COLO 205) was 19.9 µM (inactive), the GI50 (OVCAR-8) was 26.9 µM (inactive) and the GI50 (CAKI-1) was 32.9 µM (inactive). For the same compound, the GI50 (SNB-75) was 22 µM (inactive), the GI50 (U-251) was 21.9 µM (inactive) and the GI50 (SW-620) was 28.4 µM (inactive). The GI50 (MDA-N) was 19.5 µM (inactive), the GI50 (SK-MEL-28) was 27.4 µM (inactive) and the GI50 (MDA-MB-435) was 22.4 µM (inactive). The GI50 (RPMI-8226) was 10.5 µM (inactive), the GI50 (IGROV-1) was 12.4 µM (inactive) and the GI50 (NCI-H522) was 22.9 µM (inactive). For the same compound, the GI50 (MCF7) was 15.5 µM (inactive), the GI50 (UO-31) was 19.8 µM (inactive) and the GI50 (ACHN) was 25.5 µM (inactive). The GI50 (SN12C) was 18.7 µM (inactive), the GI50 (A549) was 23.6 µM (inactive) and the GI50 (NCI-H460) was 15.1 µM (inactive). The GI50 (SK-MEL-2) was 17.5 µM (inactive), the GI50 (HCT-116) was 15 µM (inactive) and the GI50 (OVCAR-5) was 14.7 µM (inactive). For the same compound, the GI50 (Malme-3M) was 17.5 µM (inactive), the GI50 (SK-MEL-5) was 21 µM (inactive) and the GI50 (HCT-15) was 28.4 µM. The GI50 (UACC-257) was 27.9 µM (inactive), the GI50 (SF-268) was 26.3 µM (inactive) and the GI50 (RXF 393) was 17.1 µM (inactive). The GI50 (NCI/ADR-RES) was 14.5 µM (inactive), the GI50 (OVCAR-3) was 14.1 µM (inactive) and the GI50 (HCC 2998) was 17.7 µM (inactive). The GI50 (T47D) was 37.5 µM (inactive), the GI50 (HT-29) was 24.7 µM (inactive) and the GI50 (MOLT-4) was 10.9 µM (inactive). The GI50 (Hs-578T) was 17.1 µM (inactive).
